From patent US20070104750A1, “Pesticidally active compositions having enhanced activity” (priority 2005, published 2007)
Where two headings read alike, the source gives them in different places.

Experiments:
[1] = tested on: beet armyworm (Spodoptera exigua) larvae
[2] = From the text: Determination of whether a pesticidally active ingredient is reactive with singlet oxygen can be determined from a simple singlet oxygen reactivity test, comprising irradiating a solution of a pesticidally active ingredient in the presence of a photosensitizer, e.g. methylene blue or rose bengal, with a suitable light source, e.g. a sodium lamp, whose spectral output is capable of allowing light absorption by the photo-sensitizer while bypassing the absorption band of the pesticidally active ingredient. The light source, in combination with the photosensitizer and molecular oxygen, will generate singlet oxygen. The observed degradation of the pesticidally active ingredient by a suitable analytical technique, such as HPLC, is indicative of its reaction with singlet oxygen. This test can be conducted in solvents in which singlet oxygen has a relatively long lifetime, e.g. perdeuterated versions of common solvents and carbon disulfide in order to speed the rate of reaction and thereby maximize the detectability of the degradation. Decay constants for singlet oxygen in various solvents are well known in the art and can be found in J. Phys. […] An Expanded and Revised Compilation” by Francis Wilkinson, W. Phillip Helman and Alberta B. Ross; Table 1, entitled Decay Constants for Singlet Oxygen in Various Solvents.
Confirmation of the degradation of the pesticidally active ingredient by singlet oxygen can be obtained further by adding a molecule which is capable of deactivating singlet oxygen by physical or chemical means, i.e. a singlet oxygen quencher, to the pesticidally active ingredient-photosensitizer solution. Suitable singlet oxygen quenchers include, for example DABCO (1,4-diazabicyclo[2.2.2]octane) and beta-carotene. A reduction in the rate of degradation of the pesticidally active ingredient in the presence of a singlet oxygen quencher confirms that the initial degradation was due to the reaction with singlet oxygen.
The solution was irradiated with a Philips 150 watt high pressure sodium lamp (sample was ca. 20 cm from lamp). […] The experiment was repeated with the inclusion of the singlet oxygen quencher DABCO (1.0×10^−3M, diazabicyclooctane Aldrich). A value greater than one indicates a slowing of the degradation due to singlet oxygen in the presence of the quencher.

[3] = activity enhancer alone, 1000 ppm, 9 DAT
[4] = activity enhancer alone, 10,000 ppm, 4 DAT
[5] = activity enhancer alone, 10,000 ppm, 7 DAT

C1CN2CCN1CC2 [DABCO, diazabicyclooctane]
Percent mortality ([1]; activity enhancer alone, 1000 ppm, 2 DAT): 0% | Percent mortality ([1]; activity enhancer alone, 1000 ppm, 7 DAT): 0% | Percent mortality [1, 3]: 0%

CCO[C@@H]1[C@@H](OC)[C@H](C)O[C@@H](O[C@@H]2C[C@H]3CC[C@@H]4[C@@H](C=C5C(=O)[C@H](C)[C@@H](O[C@H]6CC[C@H](N(C)C)[C@@H](C)O6)CCC[C@H](CC)OC(=O)C[C@H]54)[C@@H]3C2)[C@@H]1OC [DE-175 J, (2R,3aR,5aR,5bS,9S,13S,14R,16aS,16bR)-13-{[(2R,5S,6R)-5-(dimethylamino)-6-methyltetrahydro-2H-pyran-2-yl]oxy}-9-ethyl-14-methyl-7,15-dioxo-2,3,3a,4,5,5a,5b,6,7,9,10,11,12,13,14,15,16a,16b-octadecahydro-1H-as-indaceno[3,2-d]oxacyclododecin-2-yl 6-deoxy-3-O-ethyl-2,4-di-O-methyl-α-L-mannopyranoside]
rate constant for the degradation [2]: 0.1317 min⁻¹ | kwo/kw ([2]; potential activity enhancer TEPA, weight ratio I/II 3.3:1, acetonitrile): 1.9 | kwo/kw ([2]; potential activity enhancer Tryptophan, weight ratio I/II 1:1, methanol): 1.15 | kwo/kw ([2]; potential activity enhancer Tryptophan, weight ratio I/II 1:10, methanol): 1.3 | kwo/kw ([2]; potential activity enhancer Zein, weight ratio I/II 1:5, isopropanol(85)/water(15)): 1.0 | kwo/kw ([2]; quencher DABCO, weight ratio active ingredient/DABCO 3.3:1, acetonitrile): 5.1

CC(Cc1ccc(C(C)(C)C)cc1)CN1C[C@@H](C)O[C@@H](C)C1 (stereo partly drawn) [Fenpropimorph]
kwo/kw ([2]; quencher DABCO, weight ratio active ingredient/DABCO 2.7:1, acetonitrile): 7.7

C1N2CN3CN1CN(C2)C3 [HMTA, hexamethylenetetramine]
Percent mortality [1, 3]: 4%

C=CCOC(Cn1ccnc1)c1ccc(Cl)cc1Cl (stereo not drawn) [Imazalil]
kwo/kw ([2]; quencher DABCO, weight ratio active ingredient/DABCO 2.6:1, acetonitrile): 4.4

Abamectin
kwo/kw ([2]; potential activity enhancer Zein, weight ratio I/II 1:20, isopropanol(85)/water(15)): 1.0 | kwo/kw ([2]; quencher DABCO, weight ratio active ingredient/DABCO 7.8:1, acetonitrile-d3): 37.2

BSA (as 30% aqueous suspension): Bovine Serum Albumin available from Sigma
Percent mortality [1, 4]: 0% | Percent mortality [1, 5]: 0%

BSA (as 96% powder): Bovine Serum Albumin available from Sigma
Percent mortality [1, 4]: 0% | Percent mortality [1, 5]: 0%

B1: Egg albumin: Egg Albumin available from Sigma (protein, UniProt P01012 2-386, looked up)
Ovalbumin: GSIGAASMEFCFDVFKELKVHHANENIFYCPIAIMSALAMVYLGAKDSTRTQINKVVRFDKLPGFGDSIEAQCGTSVNVHSSLRDILNQITKPNDVYSFSLASRLYAEERYPILPEYLQCVKELYRGGLEPINFQTAADQARELINSWVESQTNGIIRNVLQPSSVDSQTAMVLVNAIVFKGLWEKAFKDEDTQAMPFRVTEQESKPVQMMYQIGLFRVASMASEKMKILELPFASGTMSMLVLLPDEVSGLEQLESIINFEKLTEWTSSNVMEERKIKVYLPRMKMEEKYNLTSVLMAMGITDVFSSSANLSGISSAESLKISQAVHAAHAEINEAGREVVGSAEAGVDAASVSEEFRADHPFLFCIKHIATNAVLFFGRCVSP
Percent mortality ([1]; activity enhancer alone, 1000 ppm, 3 DAT): 0% | Percent mortality ([1]; activity enhancer alone, 1000 ppm, 5 DAT): 0% | Percent mortality ([1]; activity enhancer alone, 1000 ppm, 8 DAT): 0%
